Measured values published in publication PMC4398638 (Bioorganic & medicinal chemistry, 2015).

Tested on: WI-38 human lung fibroblasts (normal) cell line (FR−)
Assay: MTT cytotoxicity assay, WI-38 cells
Format: cell-based
Details: normal (WI-38, FR−) cells versus FR-overexpressing cancer cells / free drug

## CC(=O)O[C@@]12CO[C@@H]1C[C@H](O)[C@@]1(C)C(=O)[C@H](OC(=O)C3CC3)C3=C(C)[C@@H](OC(=O)[C@H](OC(=O)Cc4ccccc4SSC(C)CCC(=O)NCCCOCCOCCOCCCNC(=O)c4ccc(CC5CCCCCc6c5nnn6CCOCCOCCOCCNC(=O)CC[C@H](NC(=O)CC[C@H](NC(=O)c5ccc(NCc6cnc7nc(N)[nH]c(=O)c7n6)cc5)C(=O)O)C(=O)N[C@@H](CCCNC(=N)N)C(=O)O)cc4)[C@H](C=C(C)C)NC(=O)OC(C)(C)C)C[C@@](O)([C@@H](OC(=O)c4ccccc4)[C@H]21)C3(C)C (stereo partly shown) [Conjugate 1]
  decrease in cytotoxicity against normal human cells: > 1,000 fold
